The target of this experiment is T1, recombinant full-length USP7 (Homo sapiens, UniProt Q93009).
T1 construct: A 25 μl reaction volume containing recombinant full-length USP7 (62 pM)
Kind of experiment: USP7-mediated ubiquitin-rhodamine cleavage assay. The format is biochemical. The conditions noted are these: recombinant full-length USP7 62 pM, ubiquitin-rhodamine 100 nM, 1 hour reaction at room temperature. The method in brief:
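After compound and enzyme (62 pM) sat together 30 min at RT, 100 nM fluorogenic ubiquitin-rhodamine substrate was added for 1 h protected from light. Acetic acid quenched the reaction prior to the fluorescence read.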

Setting [1] is: 30-minute pre-incubation, read-out: Potency (USP7 IC50).
Where [2] appears, read: 30-minute incubation with compound, read-out: Potency: USP7 IC50.

Like-named read-outs stand apart in the source and are kept apart here.

The values below come from US10722514B2 (FLX Bio, Inc., priority 2017, dated 2020).

T1 sequence (Q93009 whole entry): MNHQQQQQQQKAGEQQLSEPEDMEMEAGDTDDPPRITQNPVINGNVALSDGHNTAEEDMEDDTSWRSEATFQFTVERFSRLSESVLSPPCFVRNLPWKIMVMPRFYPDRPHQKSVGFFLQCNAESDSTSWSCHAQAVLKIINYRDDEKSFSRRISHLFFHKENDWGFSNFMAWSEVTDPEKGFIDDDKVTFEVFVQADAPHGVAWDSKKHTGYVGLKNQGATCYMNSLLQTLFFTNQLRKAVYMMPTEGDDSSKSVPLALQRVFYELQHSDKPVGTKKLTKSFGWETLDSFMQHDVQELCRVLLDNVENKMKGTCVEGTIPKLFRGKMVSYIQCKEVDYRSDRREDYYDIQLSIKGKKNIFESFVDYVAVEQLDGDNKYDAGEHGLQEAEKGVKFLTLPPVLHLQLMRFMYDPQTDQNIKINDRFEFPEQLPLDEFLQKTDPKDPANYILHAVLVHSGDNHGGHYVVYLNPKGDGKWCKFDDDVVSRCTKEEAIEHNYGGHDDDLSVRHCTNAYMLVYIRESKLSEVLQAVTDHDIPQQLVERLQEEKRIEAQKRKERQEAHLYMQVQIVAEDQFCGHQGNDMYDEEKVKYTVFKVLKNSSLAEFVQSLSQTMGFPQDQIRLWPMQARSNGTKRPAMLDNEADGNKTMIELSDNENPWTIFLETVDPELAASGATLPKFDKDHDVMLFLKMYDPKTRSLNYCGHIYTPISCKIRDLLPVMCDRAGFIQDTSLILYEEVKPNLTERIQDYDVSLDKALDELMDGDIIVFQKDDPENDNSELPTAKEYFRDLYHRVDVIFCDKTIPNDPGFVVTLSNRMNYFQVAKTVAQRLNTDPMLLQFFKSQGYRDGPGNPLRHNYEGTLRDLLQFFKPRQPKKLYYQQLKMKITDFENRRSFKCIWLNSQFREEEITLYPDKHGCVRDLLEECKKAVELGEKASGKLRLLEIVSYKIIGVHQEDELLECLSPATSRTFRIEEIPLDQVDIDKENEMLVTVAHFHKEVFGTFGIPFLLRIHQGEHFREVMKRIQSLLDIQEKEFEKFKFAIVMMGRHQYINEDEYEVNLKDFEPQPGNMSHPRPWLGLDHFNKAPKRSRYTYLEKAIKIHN

`Cc1cc(C(F)(F)F)cc(-c2ccnc3cc(Cn4c(=O)ccn(C)c4=O)sc23)c1OC1CCNCC1` [Example 446, 1-methyl-3-[[7-[3-methyl-2-(4-piperidyloxy)-5-(trifluoromethyl)phenyl]thieno[3,2-b]pyridin-2-yl]methyl]pyrimidine-2,4-dione]: under setting [1], the IC50 was < 1000 nM.

For `CN[C@H]1CC[C@@H](Oc2c(C)cc(Cl)cc2-c2ccnc3cc(CO)sc23)CC1` [Example 247, (7-(5-Chloro-3-methyl-2-(((l s,4s)-4-(methylamino)cyclohexyl)oxy)phenyl)thieno[3,2-b]pyridin-2-yl)methanol], the IC50 under setting [2] was in the range of 10000 to 30000 nM.

Turning to `Cc1cc(Cl)cc(-c2ccnc3cc(CO)sc23)c1O[C@@H]1CNC[C@@H]1F` [Example 57, (7-(5-Chloro-2-(((3R,4S)-4-fluoropyrrolidin-3-yl)oxy)-3-methylphenyl)thieno[3,2-b]pyridin-2-yl)methanol], the IC50 under setting [2] is 1000 to 10000 nM.

As to `Cc1cc(Cl)cc(-c2ccnc3cc(Cn4c(=O)ccn(CC(F)(F)F)c4=O)sc23)c1OC1CCCC1` [Example 664, 3-[[7-[5-chloro-2-(cyclopentoxy)-3-methyl-phenyl]thieno[3,2-b]pyridin-2-yl]methyl]-1-(2,2,2-trifluoroethyl)pyrimidine-2,4-dione], under setting [1], the IC50 is < 1000 nM.

On to `Cc1cc(Cl)cc(-c2ccnc3cc(CN4C(=O)C5CCCCN5C4=O)sc23)c1O[C@@H]1CNC[C@@H]1F` (stereo partly drawn) [Example 138, 2-((7-(5-Chloro-2-(((3R,4S)-4-fluoropyrrolidin-3-yl)oxy)-3-methylphenyl)thieno[3,2-b]pyridin-2-yl)methyl)tetrahydroimidazo[1,5-a]pyridine-1,3(2H,5H)-dione], for which the IC50 under setting [2] was < 1000 nM.

On to `Cc1cc(Cl)cc(-c2ccnc3cc(Cn4c(=O)c(F)cn(CC(F)(F)F)c4=O)sc23)c1O[C@@H]1CCNC[C@@H]1C` [Example 551, 3-[[7-[5-chloro-3-methyl-2-[[(3S,4R)-3-methyl-4-piperidyl]oxy]phenyl]thieno[3,2-b]pyridin-2-yl]methyl]-5-fluoro-1-(2,2,2-trifluoroethyl)pyrimidine-2,4-dione], for which the IC50 under setting [1] is < 1000 nM.

In the case of `CO[C@@H]1CC(=O)N(Cc2cc3nccc(-c4cc(Cl)cc(C)c4O[C@H]4CCCNC4)c3s2)C1=O` [Example 481, (3R)-1-[[7-[5-chloro-3-methyl-2-[[(3S)-3-piperidyl]oxy]phenyl]thieno[3,2-b]pyridin-2-yl]methyl]-3-methoxy-pyrrolidine-2,5-dione; 2,2,2-trifluoroacetic acid], the IC50 under setting [1] is < 1000 nM.

`CC(=O)N1CCC[C@H](Oc2c(C)cc(Cl)cc2-c2ccnc3cc(Cn4c(=O)ccn(CC(F)(F)F)c4=O)sc23)C1` [Example 660, 3-[[7-[2-[[(3S)-1-acetyl-3-piperidyl]oxy]-5-chloro-3-methyl-phenyl]thieno[3,2-b]pyridin-2-yl]methyl]-1-(2,2,2-trifluoroethyl)pyrimidine-2,4-dione]: the half-inhibitory concentration (IC50) under setting [1] was < 1000 nM.

Take `CCC(O)c1cc2nccc(-c3cc(Cl)cc(C)c3OCC3CN(C)C3)c2s1` (centres unmarked) [Example 3, 1-(7-(5-Chloro-3-methyl-2-((1-methylazetidin-3-yl)methoxy)phenyl)thieno[3,2-b]pyridin-2-yl)propan-1-ol]: the IC50 under setting [2] was 10000 to 30000 nM.

In the case of `Cc1cc(Cl)cc(-c2ccnc3cc(Cn4c(=O)ccn(CC(F)(F)F)c4=O)sc23)c1O[C@H]1CNC[C@@H]1C` [Example 567, 3-[[7-[5-chloro-3-methyl-2-[(3R,4S)-4-methylpyrrolidin-3-yl]oxy-phenyl]thieno[3,2-b]pyridin-2-yl]methyl]-1-(2,2,2-trifluoroethyl)pyrimidine-2,4-dione], the IC50 under setting [1] is < 1000 nM.

Take `Cc1cc(Cl)cc(-c2ccnc3cc(CN4C(=O)CCC4=O)sc23)c1O[C@@H]1CNC[C@H](F)C1` [Example 424, 1-[[7-[5-chloro-2-[[(3S,5R)-5-fluoro-3-piperidyl]oxy]-3-methyl-phenyl]thieno[3,2-b]pyridin-2-yl]methyl]pyrrolidine-2,5-dione]: the IC50 under setting [1] was < 1000 nM.

For `COC[C@@H]1CCCN1C1CC(Oc2c(C)cc(Cl)cc2-c2ccnc3cc(Cn4c(=O)ccn(CC(F)(F)F)c4=O)sc23)C1` (stereo partly drawn) [Example 686, 3-[[7-[5-chloro-2-[3-[(2S)-2-(methoxymethyl)pyrrolidin-1-yl]cyclobutoxy]-3-methyl-phenyl]thieno[3,2-b]pyridin-2-yl]methyl]-1-(2,2,2-trifluoroethyl)pyrimidine-2,4-dione; 2,2,2-trifluoroacetic acid], for the setting “30-minute incubation, read-out: Potency (USP7 IC50)”, the IC50 is < 1000 nM.

For `Cc1cc(Cl)cc(-c2ccnc3cc(Cn4c(=O)ccn(CC(F)(F)F)c4=O)sc23)c1O[C@@H]1CCN(CC(F)F)C[C@@H]1C` [Example 642, 3-[[7-[5-chloro-2-[[(3S,4R)-1-(2,2-difluoroethyl)-3-methyl-4-piperidyl]oxy]-3-methyl-phenyl]thieno[3,2-b]pyridin-2-yl]methyl]-1-(2,2,2-trifluoroethyl)pyrimidine-2,4-dione], the IC50 under setting [1] is < 1000 nM.

In the case of `Cc1cc(Cl)cc(-c2ccnc3cc(Cn4c(=O)ccn(CC(F)(F)F)c4=O)sc23)c1OCCN1CCCC1` [Example 661, 3-[[7-[5-chloro-3-methyl-2-(2-pyrrolidin-1-ylethoxy)phenyl]thieno[3,2-b]pyridin-2-yl]methyl]-1-(2,2,2-trifluoroethyl)pyrimidine-2,4-dione; 2,2,2-trifluoroacetic acid], under setting [1], the IC50 is < 1000 nM.

In the case of `Cc1cc(Cl)cc(-c2ccnc3cc(CN4C(=O)CCC4=O)sc23)c1OC1CCOCC1` [Example 450, 1-[[7-(5-chloro-3-methyl-2-tetrahydropyran-4-yloxy-phenyl)thieno[3,2-b]pyridin-2-yl]methyl]pyrrolidine-2,5-dione], the IC50 under setting [1] is < 1000 nM.

In the case of `Cc1cc(Cl)cc(-c2ccnc3cc(CN4C(=O)CCC4=O)sc23)c1O[C@@H]1CN(C2CCC2)C[C@@H]1F` [Example 322, 1-[[7-[5-chloro-2-[(3R,4S)-1-cyclobutyl-4-fluoro-pyrrolidin-3-yl]oxy-3-methyl-phenyl]thieno[3,2-b]pyridin-2-yl]methyl]pyrrolidine-2,5-dione], under setting [2], the IC50 was < 1000 nM.

Turning to `Cc1cc(Cl)cc(-c2ccnc3cc(CO)sc23)c1O[C@@H]1CN[C@@H](C(C)(C)O)C1` [Example 71, 2-((2R,4S)-4-(4-Chloro-2-(2-(hydroxymethyl)thieno[3,2-b]pyridin-7-yl)-6-methylphenoxy)pyrrolidin-2-yl)propan-2-ol], the IC50 under setting [2] was 10000 to 30000 nM.

For the compound `Cc1cc(Cl)cc(-c2ccnc3cc(CN4C(=O)CCC4=O)sc23)c1OC1CCNCC1CO` (centres unmarked) [Example 234, 1-((7-(5-Chloro-2-((3-(hydroxymethyl)piperidin-4-yl)oxy)-3-methylphenyl)thieno[3,2-b]pyridin-2-yl)methyl)pyrrolidine-2,5-dione], the IC50 under setting [2] is < 1000 nM.

Turning to `Cc1cc(Cl)cc(-c2ccnc3ccsc23)c1OC1CCNC1=O` (centres unmarked) [Example 79, 3-(4-chloro-2-methyl-6-(thieno[3,2-b]pyridin-7-yl)phenoxy)pyrrolidin-2-one], under setting [2], the IC50 was > 30000 nM.

For the compound `Cc1cc(Cl)cc(-c2ncnc3cc(CN4C(=O)C5C(C4=O)C5(C)C)sc23)c1O[C@@H]1CNCC[C@@H]1C` (stereo partly drawn) [Example 350, 3-[[4-[5-chloro-3-methyl-2-[[(3S,4S)-4-methyl-3-piperidyl]oxy]phenyl]thieno[3,2-d]pyrimidin-6-yl]methyl]-6,6-dimethyl-3-azabicyclo[3.1.0]hexane-2,4-dione], under setting [2], the concentration for half-maximal inhibition (IC50) is < 1000 nM.

As for `Cc1cc(Cl)cc(-c2ccnc3cc(CN4C(=O)C5C(C4=O)C5(C)C)sc23)c1O[C@@H]1CCNC[C@@H]1F` (stereo partly drawn) [Example 376, 3-[[7-[5-chloro-2-[[(3S,4R)-3-fluoro-4-piperidyl]oxy]-3-methyl-phenyl]thieno[3,2-b]pyridin-2-yl]methyl]-6,6-dimethyl-3-azabicyclo[3.1.0]hexane-2,4-dione; 2,2,2-trifluoroacetic acid], the IC50 under setting [2] is < 1000 nM.

Regarding `Cc1cc(C(=O)O)cc(-c2ccnc3cc(Cn4c(=O)ccn(CC(F)(F)F)c4=O)sc23)c1O[C@H]1CCCNC1` [Example 291, 3-[2-[[2,6-dioxo-3-(2,2,2-trifluoroethyl)pyrimidin-1-yl]methyl]thieno[3,2-b]pyridin-7-yl]-5-methyl-4-[[(3S)-3-piperidyl]oxy]benzoic acid], the IC50 under setting [2] is < 1000 nM.

For `Cc1cc(Cl)cc(-c2ccnc3cc(CN4C(=O)C5CCC5C4=O)sc23)c1O[C@H]1CCCNC1` (stereo partly drawn) [Example 297, 3-[[7-[5-chloro-3-methyl-2-[[(3S)-3-piperidyl]oxy]phenyl]thieno[3,2-b]pyridin-2-yl]methyl]-3-azabicyclo[3.2.0]heptane-2,4-dione; 2,2,2-trifluoroacetic acid], the IC50 under setting [2] is < 1000 nM.

Take `Cc1cc(Cl)cc(-c2ccnc3cc(Cn4c(=O)ccn(CC(F)(F)F)c4=O)sc23)c1OCCN1CCOCC1` [Example 662, 3-[[7-[5-chloro-3-methyl-2-(2-morpholinoethoxy)phenyl]thieno[3,2-b]pyridin-2-yl]methyl]-1-(2,2,2-trifluoroethyl)pyrimidine-2,4-dione; 2,2,2-trifluoroacetic acid]: the IC50 under setting [1] is < 1000 nM.

Regarding `Cc1cc(Cl)cc(-c2ccnc3cc(CN4C(=O)CCC4=O)sc23)c1OCC12CNCC1C2` (centres unmarked) [Example 52, 1-((7-(2-((3-Azabicyclo[3.1.0]hexan-1-yl)methoxy)-5-chloro-3-methylphenyl)thieno[3,2-b]pyridin-2-yl)methyl)pyrrolidine-2,5-dione], the IC50 under setting [2] is < 1000 nM.

As for `Cc1cc(Cl)cc(-c2ccnc3cc(Cn4c(=O)ccn(CC(F)(F)F)c4=O)sc23)c1O[C@H]1CN[C@H](C(F)F)C1` [Example 574, 3-[[7-[5-chloro-2-[(3R,5S)-5-(difluoromethyl)pyrrolidin-3-yl]oxy-3-methyl-phenyl]thieno[3,2-b]pyridin-2-yl]methyl]-1-(2,2,2-trifluoroethyl)pyrimidine-2,4-dione], the IC50 under setting [1] is < 1000 nM.
